Data reported in patent publication US8017612B2, “Piperazine compound and use thereof as a HCV polymerase inhibitor” (priority 2006, dated 2011).

Experiments:
[1] = molecular target: T1, HCV polymerase (NS5B) type 1b (Hepatitis C virus genotype 1b, UniProt P26663); experiment: Assay of enzyme (HCV polymerase) inhibitory activity, type 1b enzyme; type: biochemical, HCV BK strain (type 1b); conditions: HCV polymerase inhibitory activity IC50, 1b, type 1b enzyme
T1 construct: a region encoding NS5B (J Virol 1991 March, 65(3), 1105-13, 544 amino acids after deletion of 47 amino acids on the C-terminal); 6xHis (C); made in house; host or cells: Escherichia coli
Summary of the method: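 Polymerase activity was followed as radiolabelled UTP incorporation by E. coli-expressed, His-tagged NS5B of HCV type 1b lacking its last 47 residues. Conditions: 2 μM UTP, 50 μM other NTPs, Mg2+ buffer at pH 7.5, 25 °C for 60 min. Inhibition relative to compound-free reactions gave IC50.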

[2] = molecular target: T2, HCV polymerase (NS5B) type 1a (Hepatitis C virus genotype 1a, UniProt P26664); experiment: Assay of enzyme (HCV polymerase) inhibitory activity, type 1a enzyme; type: biochemical, HCV type 1a (cloned from the blood of patients); conditions: HCV polymerase inhibitory activity IC50, 1a, type 1a enzyme
T2 construct: made in house; host or cells: Escherichia coli (by the 'similar method' of the 1b enzyme)
Summary of the method: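 IC50 values derive from radioactivity of newly synthesized RNA with versus without test compound. The enzyme was C-terminally truncated type 1a NS5B, 1.5 μg/ml, run 60 min at 25° C with 3H-UTP-labelled nucleotides.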

SMILES | IC50 [1] [nM] | IC50 [2] [nM]
CCC(F)(F)c1ccc(CNC(=O)[C@H]2CN(c3cnc4cncnc4n3)CCN2S(=O)(=O)c2ccc(-c3cccc(C(=O)O)c3)cc2)cc1 [Example 753, 4′-{(R)-2-[4-(1,1-difluoro-propyl)-benzylcarbamoyl]-4-pteridin-7-yl-piperazine-1-sulfonyl}-biphenyl-3-carboxylic acid] | < 100 | < 100
O=C(NCc1ccc(OC(F)(F)F)cc1)[C@H]1CN(c2cnc3cnccc3n2)CCN1S(=O)(=O)c1ccc([N+](=O)[O-])cc1 [Example 754, (R)-1-(4-nitro-benzenesulfonyl)-4-pyrido[3,4-b]pyrazin-2-yl-piperazine-2-carboxylic acid 4-trifluoromethoxy-benzylamide] | < 100 | < 100
O=C(NCc1ccc(OC(F)(F)F)cc1)[C@H]1CN(c2cnc3cnccc3n2)CCN1S(=O)(=O)c1ccc(N2CCCC2)cc1 [Example 755, (R)-4-pyrido[3,4-b]pyrazin-2-yl-1-(4-pyrrolidin-1-yl-benzenesulfonyl)-piperazine-2-carboxylic acid 4-trifluoromethoxy-benzylamide] | < 100 | < 100
CCC(F)(F)c1ccc(CNC(=O)[C@H]2CN(c3nc4ccncc4[nH]3)CCN2S(=O)(=O)c2ccc(OC(F)(F)F)cc2)cc1 [Example 756, (R)-4-(3H-imidazo[4,5-c]pyridin-2-yl)-1-(4-trifluoromethoxy-benzenesulfonyl)-piperazine-2-carboxylic acid 4-(1,1-difluoro-propyl)-benzylamide] | < 100 | < 100
O=C(NCc1ccc(OC(F)(F)F)cc1)[C@H]1CN(c2cnc3cnccc3n2)CCN1S(=O)(=O)c1ccc(C(F)(F)F)cc1 [Example 757, (R)-4-pyrido[3,4-b]pyrazin-2-yl-1-(4-trifluoromethyl-benzenesulfonyl)-piperazine-2-carboxylic acid 4-trifluoromethoxy-benzylamide] | < 100 | < 100
CCC(F)(F)c1ccc(CNC(=O)[C@H]2CN(c3nc4ccccc4[nH]3)CCN2S(=O)(=O)c2ccc(OC(F)(F)F)cc2)cc1 [Example 758, (R)-4-(1H-benzimidazol-2-yl)-1-(4-trifluoromethoxy-benzenesulfonyl)-piperazine-2-carboxylic acid 4-(1,1-difluoro-propyl)-benzylamide] | < 100 | < 100
CCC(F)(F)c1ccc(CNC(=O)[C@H]2CN(c3cnc4cncnc4n3)CCN2S(=O)(=O)c2ccc(-c3nc(=O)o[nH]3)cc2)cc1 [Example 759, (R)-1-[4-(5-oxo-2,5-dihydro-[1,2,4]oxadiazol-3-yl)-benzenesulfonyl]-4-pteridin-7-yl-piperazine-2-carboxylic acid 4-(1,1-difluoro-propyl)-benzylamide] | < 100 | < 100
CCC(F)(F)c1ccc(CNC(=O)[C@H]2CN(c3cnc4cccnc4n3)CCN2S(=O)(=O)c2ccc(OC(F)(F)F)cc2)cc1 [Example 760, (R)-4-pyrido[2,3-b]pyrazin-3-yl-1-(4-trifluoromethoxy-benzenesulfonyl)-piperazine-2-carboxylic acid 4-(1,1-difluoro-propyl)-benzylamide] | < 100 | < 100
CCC(F)(F)c1ccc(CNC(=O)[C@H]2CN(c3cnc4ncccc4n3)CCN2S(=O)(=O)c2ccc(OC(F)(F)F)cc2)cc1 [Example 761, (R)-4-pyrido[2,3-b]pyrazin-2-yl-1-(4-trifluoromethoxy-benzenesulfonyl)-piperazine-2-carboxylic acid 4-(1,1-difluoro-propyl)-benzylamide] | < 100 | < 100
O=C(NCc1ccc(OC(F)(F)F)cc1)[C@H]1CN(c2ccc3nccnc3n2)CCN1S(=O)(=O)c1ccc(OC(F)(F)F)cc1 [Example 762, (R)-4-pyrido[2,3-b]pyrazin-6-yl-1-(4-trifluoromethoxy-benzenesulfonyl)-piperazine-2-carboxylic acid 4-trifluoromethoxy-benzylamide] | < 100 | < 100
O=C(NCc1ccc(OCC(F)(F)F)cc1)[C@H]1CN(c2cnc3cncnc3n2)CCN1S(=O)(=O)c1ccc(OC(F)(F)F)cc1 [Example 763, (R)-4-pteridin-7-yl-1-(4-trifluoromethoxy-benzenesulfonyl)-piperazine-2-carboxylic acid 4-(2,2,2-trifluoro-ethoxy)-benzylamide] | < 100 | < 100
CCOC(=O)CN(C)c1ccc(S(=O)(=O)N2CCN(c3cnc4cnccc4n3)C[C@@H]2C(=O)NCc2ccc(OC(F)(F)F)cc2)cc1 [Example 764, (methyl-{4-[(R)-4-pyrido[3,4-b]pyrazin-2-yl-2-(4-trifluoromethoxy-benzylcarbamoyl)-piperazine-1-sulfonyl]-phenyl}-amino)-acetic acid ethyl ester] | < 100 | < 100
CN(CC(=O)O)c1ccc(S(=O)(=O)N2CCN(c3cnc4cnccc4n3)C[C@@H]2C(=O)NCc2ccc(OC(F)(F)F)cc2)cc1 [Example 765, (methyl-{4-[(R)-4-pyrido[3,4-b]pyrazin-2-yl-2-(4-trifluoromethoxy-benzylcarbamoyl)-piperazine-1-sulfonyl]-phenyl}-amino)-acetic acid] | < 100 | < 100
O=C(NCc1ccc(OC(F)(F)F)cc1)[C@H]1CN(c2cnc3c(Cl)cccc3n2)CCN1S(=O)(=O)c1ccc(OC(F)(F)F)cc1 [Example 766, (R)-4-(5-chloro-quinoxalin-2-yl)-1-(4-trifluoromethoxy-benzenesulfonyl)-piperazine-2-carboxylic acid 4-trifluoromethoxy-benzylamide] | < 100 | 100 to 1000
Cc1ncc2ncc(N3CCN(S(=O)(=O)c4ccc(OC(F)(F)F)cc4)[C@@H](C(=O)NCc4ccc(OC(F)(F)F)cc4)C3)nc2n1 [Example 767, (R)-4-(2-methyl-pteridin-7-yl)-1-(4-trifluoromethoxy-benzenesulfonyl)-piperazine-2-carboxylic acid 4-trifluoromethoxy-benzylamide] | < 100 | < 100
O=C(NCc1ccc(OC(F)(F)F)cc1)[C@H]1CN(c2nc3ccncc3s2)CCN1S(=O)(=O)c1ccc(OC(F)(F)F)cc1 [Example 768, (R)-4-thiazolo[5,4-c]pyridin-2-yl-1-(4-trifluoromethoxy-benzenesulfonyl)-piperazine-2-carboxylic acid 4-trifluoromethoxy-benzylamide] | < 100 | < 100
O=C(NCc1ccc(OC(F)(F)F)cc1)[C@H]1CN(c2cnc3ncccc3n2)CCN1S(=O)(=O)c1ccc(OC(F)(F)F)cc1 [Example 769, (R)-4-pyrido[2,3-b]pyrazin-2-yl-1-(4-trifluoromethoxy-benzenesulfonyl)-piperazine-2-carboxylic acid 4-trifluoromethoxy-benzylamide] | < 100 | < 100
O=C(NCc1ccc(OC(F)(F)F)cc1)[C@H]1CN(c2cnc3cccnc3n2)CCN1S(=O)(=O)c1ccc(OC(F)(F)F)cc1 [Example 770, (R)-4-pyrido[2,3-b]pyrazin-3-yl-1-(4-trifluoromethoxy-benzenesulfonyl)-piperazine-2-carboxylic acid 4-trifluoromethoxy-benzylamide] | < 100 | < 100
O=C(NCc1ccc(OC(F)(F)F)cc1)[C@H]1CN(c2ccc3cnccc3n2)CCN1S(=O)(=O)c1ccc(OC(F)(F)F)cc1 [Example 771, (R)-4-[1,6]naphthyridin-2-yl-1-(4-trifluoromethoxy-benzenesulfonyl)-piperazine-2-carboxylic acid 4-trifluoromethoxy-benzylamide] | < 100 | < 100
O=C(NCc1ccc(SC(F)(F)F)cc1)[C@H]1CN(c2cnc3cncnc3n2)CCN1S(=O)(=O)c1ccc(OC(F)(F)F)cc1 [Example 772, (R)-4-pteridin-7-yl-1-(4-trifluoromethoxy-benzenesulfonyl)-piperazine-2-carboxylic acid 4-trifluoromethylsulfanyl-benzylamide] | < 100 | < 100
CCCc1ccc(CNC(=O)[C@H]2CN(c3cnc4cncnc4n3)CCN2S(=O)(=O)c2ccc(OC(F)(F)F)c(CCCC(=O)O)c2)cc1 [Example 773, 4-{5-[(R)-2-(4-propyl-benzylcarbamoyl)-4-pteridin-7-yl-piperazine-1-sulfonyl]-2-trifluoromethoxy-phenyl}-butyric acid] | < 100 | < 100
O=C(O)c1ccc(N2CCN(S(=O)(=O)c3ccc(OC(F)(F)F)cc3)[C@@H](C(=O)NCc3ccc(OC(F)(F)F)cc3)C2)nc1 [Example 774, 6-[(R)-4-(4-trifluoromethoxy-benzenesulfonyl)-3-(4-trifluoromethoxy-benzylcarbamoyl)-piperazin-1-yl]-nicotinic acid] | < 100 | < 100
O=C(NCc1ccc(OC(F)(F)F)cc1)[C@H]1CN(c2cnc3cnccc3n2)CCN1S(=O)(=O)c1ccc(Br)s1 [Example 775, (R)-1-(5-bromo-thiophene-2-sulfonyl)-4-pyrido[3,4-b]pyrazin-2-yl-piperazine-2-carboxylic acid 4-trifluoromethoxy-benzylamide] | < 100 | < 100
